Reference: US9084904B2, “Composition for external application” (OTSUKA PHARMACEUTICAL CO., LTD., priority 2008, dated 2015)

Tested on: JB6 CL 41-5A Cell Line, mouse epidermis
Test: Influence of glucose on the intracellular ATP generation-promotion effect of AMP in cultured mouse epidermal cells (ATPlite luminescence)
Assay type: cell-based
Conditions: AMP 1 mM, 2 h
Source text: The following reports a test for examining the influence of glucose on the intracellular ATP generation-promotion effect given by AMP. Cultured mouse epidermal cells were used in the test.
Cells: JB6 CL 41-5A Cell Line, mouse epidermis
Culture medium: an MEM medium containing 5% FCS (Fetal Calf Serum)
MEM medium (Nacalai Tesque), Fetal calf serum (GIBCO) AMP: disodium adenosine monophosphate (Yamasa Corporation)
Glucose: D-glucose (Wako Pure Chemical Ind. Ltd.)
ATP measurement: “ATPlite” Luminescence Assay System (Perkin Elmer)
Microplate luminescence reader Anthos Lucy 1 (Aloka Co., Ltd.)
Cultured mouse epidermal cells were inoculated in a 96-well microplate in an amount of 5.8×10^3 cells per well. After two hours, the medium was replaced with another culture medium containing a test sample of a predetermined quantity. After another two hours, the medium was removed, and the amount of ATP was measured.
In the following experiment example, the content of glucose was 100 mg/dL, based on the fact that the normal fasting blood-sugar level of a living body is generally about 70 to 100 mg/dL.
Three concentrations (101, 110, 200 mg/dL) of glucose were added to a normal culture medium (containing 100 mg/dL of glucose) so as to examine how each concentration affects the ATP generation-promotion effect of AMP (1 mM). […] The addition of glucose with a concentration of 110 mg/dL increased ATP generation by 25%, based on the concentration of 100 mg/dL that corresponds to the normal fasting blood-sugar level.
Based on the result of Experiment Example 1, another experiment was performed as follows so as to confirm the influence of the glucose addition on the ATP generation-promotion effect of AMP by ensuring the increase of ATP generation by AMP (1 mM) when the glucose content is 101 mg/dL and 110 mg/dL, and ensuring the decrease of ATP generation by AMP (1 mM) when the glucose content is 200 mg/dL or higher.

[1] = Experiment Example 2, glucose 600 mg/dL

Nc1ncnc2c1ncn2[C@@H]1O[C@H](COP(=O)([O-])[O-])[C@@H](O)[C@H]1O.[Na+].[Na+] [AMP, disodium adenosine monophosphate]
increase of ATP generation (Experiment Example 1, glucose 110 mg/dL, based on 100 mg/dL glucose): 25%
ATP generation (Experiment Example 1, glucose 200 mg/dL): lower than when the glucose content was 110 mg/dL and AMP was 1 mM
ATP generation (Experiment Example 1, glucose content increased from 101 to 110 mg/dL): ATP generation increased
increase of ATP generation (Experiment Example 2, glucose 101 mg/dL): ≥ 30%
increase of ATP generation (Experiment Example 2, glucose 110 mg/dL): ≥ 30%
ATP generation (Experiment Example 2, glucose 200 mg/dL): lower than when the glucose content was 100 mg/dL and AMP was 1 mM
ATP generation compared with AMP-free medium containing 100 mg/dL glucose [1]: not significantly lower
ATP generation-promotion effect of AMP [1]: small
